Active and inactive are the calls of the source. The calls are words filed in the database; no cut-off is given here.
What was measured:
[1] = test system: K562; assay: Induction of apoptosis in human K562 cells assessed as early apoptotic cells at 300 uM after 24 hrs by Annexin V-FITC/propidium iodide staining based flow cytometry (reference value: 5%); assay type: functional
[2] = test system: K562; assay: Induction of apoptosis in human K562 cells assessed as early apoptotic cells at 300 uM after 48 hrs by Annexin V-FITC/propidium iodide staining based flow cytometry (reference value: 5%); assay type: functional
[3] = test system: K562; assay: Antiproliferative activity against human K562 cells assessed as inhibition of cell survival after 48 hrs by MTT assay; assay type: functional, cell-based; conditions: K562, 48 h
[4] = target: T1, Alpha-2A adrenergic receptor (Homo sapiens, UniProt P08913); assay: Displacement of [3H]RS-79948-197 from recombinant human alpha2A adrenoreceptor expressed in CHOK1 cell membrane by scintillation counting method; assay type: cell membranes, CHO-K1; conditions: read-out: Ki(app)
T1 sequence (P08913 whole entry): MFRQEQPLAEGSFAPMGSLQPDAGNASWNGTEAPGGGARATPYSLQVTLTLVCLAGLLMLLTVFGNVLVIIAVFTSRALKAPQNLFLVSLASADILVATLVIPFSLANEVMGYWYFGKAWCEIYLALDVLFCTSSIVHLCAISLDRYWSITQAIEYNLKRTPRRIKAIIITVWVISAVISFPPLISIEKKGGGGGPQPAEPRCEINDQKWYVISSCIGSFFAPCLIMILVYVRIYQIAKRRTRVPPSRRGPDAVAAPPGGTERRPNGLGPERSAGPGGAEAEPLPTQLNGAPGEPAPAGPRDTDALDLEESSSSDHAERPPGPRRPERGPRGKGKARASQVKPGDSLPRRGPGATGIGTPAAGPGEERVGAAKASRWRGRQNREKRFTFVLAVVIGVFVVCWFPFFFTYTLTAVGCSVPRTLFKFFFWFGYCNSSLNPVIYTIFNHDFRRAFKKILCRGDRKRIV

[5] = target: T1, Alpha-2A adrenergic receptor; assay: Intrinsic activity at recombinant human alpha2A adrenoreceptor expressed in CHOK1 cell membrane incubated for 30 mins by [35S]GTPgammaS binding assay relative to adrenaline; assay type: cell membranes; conditions: CHO-K1, human, 0.5 h; read-out: Intrinsic activity
[6] = test system: K562; assay: Induction of apoptosis in human K562 cells assessed as early apoptotic cells at 50 uM after 48 hrs by Annexin V-FITC/propidium iodide staining based flow cytometry (reference value: 5%); assay type: functional
[7] = test system: K562; assay: Potentiation of doxorubicin-induced apoptosis in human K562 cells assessed as early apoptotic cells at 50 uM after 48 hrs by Annexin V-FITC/propidium iodide staining based flow cytometry relative to control; assay type: functional
[8] = target: T2, Nischarin (Rattus norvegicus, UniProt Q4G017); assay: Displacement of [125I]PIC from Imidazoline-1 receptor in rat PC12 cell membrane incubated for 30 mins by gamma counting method; assay type: cell membranes, PC-12
T2 sequence (Q4G017 whole entry): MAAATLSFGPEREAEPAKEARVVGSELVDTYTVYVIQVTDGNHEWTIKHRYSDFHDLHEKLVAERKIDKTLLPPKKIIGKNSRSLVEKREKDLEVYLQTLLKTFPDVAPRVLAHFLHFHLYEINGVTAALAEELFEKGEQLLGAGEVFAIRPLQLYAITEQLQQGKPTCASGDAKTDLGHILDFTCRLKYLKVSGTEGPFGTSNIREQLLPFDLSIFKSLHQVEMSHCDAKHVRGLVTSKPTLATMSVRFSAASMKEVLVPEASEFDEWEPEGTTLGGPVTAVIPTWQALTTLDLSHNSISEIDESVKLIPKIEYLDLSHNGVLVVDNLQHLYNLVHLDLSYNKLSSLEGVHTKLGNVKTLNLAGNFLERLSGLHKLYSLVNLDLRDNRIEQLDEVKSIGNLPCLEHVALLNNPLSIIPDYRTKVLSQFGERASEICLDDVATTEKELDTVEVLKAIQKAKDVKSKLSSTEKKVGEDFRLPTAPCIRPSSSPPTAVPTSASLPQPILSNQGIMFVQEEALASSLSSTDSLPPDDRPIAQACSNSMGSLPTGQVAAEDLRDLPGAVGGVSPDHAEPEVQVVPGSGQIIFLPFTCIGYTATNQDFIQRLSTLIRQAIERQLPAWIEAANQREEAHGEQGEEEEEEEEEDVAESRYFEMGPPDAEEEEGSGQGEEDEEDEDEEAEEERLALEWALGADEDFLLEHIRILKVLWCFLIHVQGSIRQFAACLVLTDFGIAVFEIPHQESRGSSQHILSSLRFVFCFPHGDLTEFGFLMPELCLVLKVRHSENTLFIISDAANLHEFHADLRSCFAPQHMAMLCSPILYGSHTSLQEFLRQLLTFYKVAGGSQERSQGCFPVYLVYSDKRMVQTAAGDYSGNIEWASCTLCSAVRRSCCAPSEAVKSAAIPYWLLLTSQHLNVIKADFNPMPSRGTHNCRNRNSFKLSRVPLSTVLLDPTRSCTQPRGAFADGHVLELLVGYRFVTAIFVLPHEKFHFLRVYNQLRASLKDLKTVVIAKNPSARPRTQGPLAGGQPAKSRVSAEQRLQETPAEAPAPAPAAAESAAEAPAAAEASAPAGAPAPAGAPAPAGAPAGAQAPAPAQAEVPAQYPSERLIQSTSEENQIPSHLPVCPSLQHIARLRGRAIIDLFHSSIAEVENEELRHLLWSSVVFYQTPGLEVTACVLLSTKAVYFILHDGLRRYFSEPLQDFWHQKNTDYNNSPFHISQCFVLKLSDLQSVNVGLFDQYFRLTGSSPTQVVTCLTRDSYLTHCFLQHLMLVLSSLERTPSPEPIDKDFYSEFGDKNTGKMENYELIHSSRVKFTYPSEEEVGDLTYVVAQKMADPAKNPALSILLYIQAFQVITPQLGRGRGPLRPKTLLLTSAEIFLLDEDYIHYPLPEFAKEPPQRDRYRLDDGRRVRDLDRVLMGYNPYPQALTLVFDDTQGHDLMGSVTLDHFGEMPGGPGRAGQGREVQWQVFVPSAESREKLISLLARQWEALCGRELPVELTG

[9] = target: T1, Alpha-2A adrenergic receptor
Description: Agonist activity at recombinant human alpha2A adrenoreceptor expressed in CHOK1 cell membrane incubated for 30 mins by [35S]GTPgammaS binding assay

[10] = Displacement of [3H]-clonidine from Imidazoline-1 receptor in bovine chromaffin cell membranes incubated for 40 mins in presence of RX821002; design: species or system Bos taurus
[11] = test system: K562; assay: Induction of apoptosis in human K562 cells assessed as early apoptotic cells at 1 uM after 48 hrs by Annexin V-FITC/propidium iodide staining based flow cytometry (reference value: 5%); assay type: functional
[12] = test system: K562; assay: Induction of apoptosis in human K562 cells assessed as late apoptotic cells at 1 uM after 48 hrs by Annexin V-FITC/propidium iodide staining based flow cytometry (reference value: 1%); assay type: functional
[13] = test system: K562; assay: Induction of apoptosis in human K562 cells assessed as necrotic cells at 1 uM after 48 hrs by Annexin V-FITC/propidium iodide staining based flow cytometry (reference value: 1%); assay type: functional
[14] = test system: K562; assay: Induction of apoptosis in human K562 cells assessed as early apoptotic cells at 1 uM after 48 hrs by Annexin V-FITC/propidium iodide staining based flow cytometry relative to control; assay type: functional
[15] = test system: K562; assay: Cell cycle arrest in human K562 cells assessed as increase in G2/M cell population after 48 hrs by propidium iodide staining based flow cytometry; assay type: functional
[16] = target: T2, Nischarin; assay: Displacement of [125I]PIC from Imidazoline-1 receptor in rat PC12 cell membrane by gamma counting method; assay type: cell membranes, PC-12
[17] = Displacement of [3H]-clonidine from Imidazoline-1 receptor in bovine adrenal medullary plasma membrane incubated for 40 mins in presence of RX821002; design: species or system Bos taurus
[18] = test system: K562; assay: Induction of apoptosis in human K562 cells assessed as early apoptotic cells at 300 uM up to 48 hrs by Annexin V-FITC/propidium iodide staining based flow cytometry; assay type: functional, cell-based

COc1nc(C)nc(Cl)c1NC1=NCCN1 [MOXONIDINE]
Activity [1]: 2.31%
Activity [2]: 2.68%

Cc1cc(NCc2ccc(Cl)cc2)cc(=O)n1CCC(C)C
IC50 [3]: 224000 nM
Ki [4]: 99000 nM
Emax [5]: -1%

C1COC(NC(C2CC2)C2CC2)=N1 [RILMENIDINE]
Activity [6]: 20%
IC50 [3]: 65000 nM
Ki [4]: 300 nM
Emax [5]: 54%
Activity [7]: 44%
Ki [8]: 12.6 nM
EC50 [9]: 178 nM

CCC1CCC(NC(C2CC2)C2CC2)=N1 (stereo not drawn)
pKi [10]: 6.77

COc1cccc2c1C(=O)c1c(O)c3c(c(O)c1C2=O)C[C@@](O)(C(=O)CO)C[C@@H]3O[C@H]1C[C@H](N)[C@H](O)[C@H](C)O1 [DOXORUBICIN]
IC50 [3]: 1000 nM
Activity [11]: 20%
Activity [12]: 0%
Activity [13]: 0%
Activity [14]: 10%
Activity [15]: Active

C(=C\c1ccccc1)/C1=NCCN1 [TRACIZOLINE]
Ki [16]: 19.1 nM

CCC(NC1=NCCC1)C1CC1 (stereo not drawn)
pKi [10]: 6.29

Clc1cccc2c1CN(NC1=NCCN1)C2
Ki [8]: 28.2 nM

NC1=NCC(COc2ccccc2Br)O1 (stereo not drawn)
pKi [17]: 8.19

COC1=CCCC=C1C1=NCCN1
pKi [17]: 8.53

N#CSc1ccc2oc(C3=NCCN3)cc2c1
pKi [10]: 5.6

Cc1ccc(F)c(C2=NCCN2)c1
pKi [17]: 8.28

C1CCC2N=C(NC(C3CC3)C3CC3)CC2C1 (stereo not drawn)
pKi [10]: 4

CC(Oc1c(Cl)cccc1Cl)C1=NCCN1 (stereo not drawn) [LOFEXIDINE]
Ki [8]: 5.62 nM

CC1CCC(NC(C2CC2)C2CC2)=N1 (stereo not drawn)
pKi [10]: 5.8

CCC1(c2cnc[nH]2)Cc2ccccc2C1 [ATIPAMEZOLE]
Ki [4]: 1.2 nM

CCC1(C2=NCCN2)Cc2ccccc2O1 (stereo not drawn) [EFAROXAN]
IC50 [3]: > 300000 nM
Emax [5]: -13%
Activity [18]: inactive

— ChEMBL document CHEMBL3813687, “A combined ligand- and structure-based approach for the identification of rilmenidine-derived compounds which synergize the antitumor effects of doxorubicin” (Bioorg Med Chem, 2016)
